In this assay the target is T1, Fusarium graminearum myosin I (FgMyoI) (Fusarium graminearum, UniProt I1RCT2).
T1 construct: gene FGRAMPH1_01T03465
Description: biochemical.

Each structure is given as a SMILES string.

The compound `CCOC(=O)/C(C#N)=C(\N)c1ccccc1` [phenamacril] came in with an IC50 of 360 nM.

The IC50 is the concentration that inhibits the measured activity by half. Low readings indicate greater potency in that assay, high ones weaker potency in that assay.
